# Data taken from publication PMC7281072 (Cancers, 2020).
# Read-outs that look alike come from different tables or passages of the source.
# Columns and labels:
# AKT1,2 phosphorylation = experiment: AKT phosphorylation ELISA, UWB1.289+BRCA1 cells; type: cell-based, human; parameters: Vmax ± SE, pAKT 1/2 inhibition: unit not given beside the values; settings: for Vmax ± SE, pAKT 1/2 inhibition: Michaelis Menten model; for IC50: Homo sapiens, read-out: IC50, pAKT 1/2 inhibition
# ERK1,2 phosphorylation = experiment: ERK1/2 phosphorylation ELISA, OVCAR-3 cells; type: cell-based, human; settings: for Vmax ± SE, pERK 1/2 inhibition: Michaelis Menten model; for IC50: Homo sapiens, read-out: IC50, pERK 1/2 inhibition
# [1] = tested on: UWB1.289 cancer cell line
# in vivo = settings: both, CB17 SCID, mouse, ip
SMILES,"Vmax ± SE, pAKT 1/2 inhibition (AKT1,2 phosphorylation; 15 min)","Vmax ± SE, pAKT 1/2 inhibition (AKT1,2 phosphorylation; 30 min)","Vmax ± SE, pAKT 1/2 inhibition (AKT1,2 phosphorylation; 60 min)","IC50 (AKT1,2 phosphorylation; 0.25 h, 15 min)","IC50 (AKT1,2 phosphorylation; 0.5 h, 30 min)","IC50 (AKT1,2 phosphorylation; 1 h, 60 min)","Vmax ± SE, pERK 1/2 inhibition (ERK1,2 phosphorylation; 15 min)","Vmax ± SE, pERK 1/2 inhibition (ERK1,2 phosphorylation; 30 min)","Vmax ± SE, pERK 1/2 inhibition (ERK1,2 phosphorylation; 60 min)","IC50 (ERK1,2 phosphorylation; 0.25 h, 15 min)","IC50 (ERK1,2 phosphorylation; 0.5 h, 30 min)","IC50 (ERK1,2 phosphorylation; 1 h, 60 min)",TGI (Total Growth Inhibition) [1],TGI (Total Growth Inhibition) (SK-OV-3 cancer cell line),LD50 (in vivo)
"C[C@]12CC[C@H]3[C@@H](CCC4=CC(=O)NCC[C@@]43C)[C@@H]1CC[C@@H]2OC(=O)CCOc1ccc(N(CCCl)CCCl)cc1 [ENGA-L06E, 5a,7a-dimethyl-2-oxo-2,3,4,5,5a,5b,6,7,7a,8,9,10,10a,10b,11,12-hexa decahydrocyclopenta [5, 6] naphtho [1,2-d] azepin-8-yl 3-(4-(bis(2-chloroethyl)amino)phenoxy) propanoate]",59.78 ± 4.67,57.10 ± 3.38,63.12 ± 4.19,44.4 µM,40.3 µM,25.8 µM,53.57 ± 3.41,80.62 ± 1.98,93.91 ± 3.61,49 µM,14.5 µM,12.8 µM,8 ± 0.8 μΜ,52 ± 3.3 μΜ,
"C[C@]12CC[C@@H]3c4ccc(OC(=O)CCOc5ccc(N(CCCl)CCCl)cc5)cc4CC[C@H]3[C@@H]1CCC(=O)N2 [ENGA-L08E, 12a-methyl-2-oxo-1,2,3,4,4a,4b,5,6,10b,11,12,12a-dodecahydronaphtho[2,1-f]quinolin-8-yl 3-(4-(bis (2-chloroethyl)amino)phenoxy) propanoate]",57.59 ± 1.42,60.90 ± 3.82,63.84 ± 5.49,36.2 µM,26.6 µM,19.4 µM,56.77 ± 0.49,61.29 ± 1.88,63.79 ± 1.33,48.9 µM,17.8 µM,9.51 µM,20 ± 1.5 μΜ,76 ± 7.2 μΜ,95 mg/kg
